In brackets after ≈: the same amount, converted by molar mass. Read-outs that look alike come from different tables or passages of the source.
Tests used:
[1] = parameters: method as in earlier work; conditions: standard mixture for the calibration line; cited from earlier work
S. aureus CECT 976 [2] = assay: MIC/MBC by broth microdilution, S. aureus CECT 976; assay type: cell-based; conditions: Staphylococcus aureus, CECT976; for MIC: 24 h, 37 °C, read-out: MIC
Protocol: (§1) The minimum inhibitory concentration (MIC) and minimum bactericidal concentration (MBC) values of all QHSs were determined by the broth microdilution method, according to the approved M7-A7 (aerobes) standards of the Clinical and Laboratory Standards Institute (CLSI) guidelines. Overnight cell cultures of S. aureus, in the exponential phase of growth, were adjusted to an optical density (OD) of 0.132 ± 0.02 (λ = 600 nm). Then, a volume of 180 µL of the cell suspension was added to sterile, flat, clear-bottomed polystyrene (PS) 96-well microtiter plates (VWR—Radnor, PA, USA), already containing 20 µL of each QHS under study at concentrations ranging from 0.0625 to 64 µg/mL. In the end, the volume of each compound never exceeded 10% (v/v) of the well volume. Microtiter plates were then incubated for 24 h at 37 °C under agitation (150 rpm; INCU-Line IL 150R incubator). Absorbance measurements were performed at the beginning (t = 0 h) and end (t = 24 h) of the incubation period using a microtiter plate absorbance reader (BMG LABTECH FLUOstar Omega). Bacterial suspensions with DMSO and without QHSs were used as negative controls. […] All tests were performed with six replicates and a minimum of three independent repeats.
Plates were incubated at 37 °C for 24 h, and growth was visually inspected. […] All tests were performed in triplicate, and with a minimum of three independent repeats.

[3] = Chromatographic hydrophobicity index (CHI) by UHPLC; assay type: physicochemical; conditions: for CHI: LC/UV at pH 2.6, calculated from retention time with the calibration line; for chromatographic logP: back-calculated from CHI at pH 2.6: CHI LogP = 0.047 × CHI + 0.36 × HBC − 1.10
Protocol: The chromatographic hydrophobicity index (CHI) values were determined using the retention times (tR) of the samples under study and of a mixture of standard compounds on a UHPLC NEXERA SERIES LC-40 with a Luna C18 (2) column of 150 × 4.6 mm, 5 μm (Phenomenex, Torrance, CA, USA). Stock solutions of the test compounds (10 mM) were prepared in dimethyl sulfoxide (DMSO, 99.9%; Carlo Erba) and diluted in acetonitrile/water (1:1) to obtain a final concentration of 500 μM. The mobile phase A was 1.0% (v/v) aqueous acetic acid solution (pH = 2.6), and the mobile phase B was acetonitrile. The following gradient programme was applied: 1–7 min 0–100% B, 7–17 min 100% B, 17–19 min 100–0% B, 1 mL/min flow; rt, injection volume 40 μL.
A calibration line was obtained using a mixture of the following compounds: benzimidazole, theophylline, paracetamol, caffeine, colchicine, carbamazepine, indole, propiophenone, butyrophenone, valerophenone, and heptanophenone (Table S1 and Figure S50, Supplementary Materials). The experimental CHI values of the compounds tested at pH 2.6 were then converted to the logarithm of octanol/water partition coefficient (CHI LogP) values using Equation (1). CHI LogP = 0.047 × CHI + 0.36 × HBC − 1.10 (1) where HBC is the hydrogen bond donor count.

S. aureus XU212 = assay: MIC/MBC by broth microdilution, S. aureus XU212; assay type: cell-based; conditions: Staphylococcus aureus
Protocol: (§2) S. aureus CECT 976, obtained from the Spanish Type Culture Collection, was used as the standard susceptibility testing control strain. This strain has been previously employed in diverse studies to validate the antimicrobial effects of novel molecules. Additional antibiotic-resistant strains, S. aureus XU212, SA1199B, and RN4220, generously provided by S. Gibbons (University College London, London, UK) were tested. […] The SA1199B strain is characterized by its resistance to fluoroquinolones due to the overexpression of the NorA efflux pump and its ciprofloxacin resistance.
as §1
(§3) Plates were incubated at 37 °C for 24 h, and growth was visually inspected. The MBC was determined as the lowest concentration of compound in which the total inhibition of growth on solid medium was observed (no colony forming units (CFUs) were detected). All tests were performed in triplicate, and with a minimum of three independent repeats.

HepG2 cells = assay: Cytotoxicity by neutral red (NR) uptake; assay type: cell-based, human; conditions: HepG2, 24 h
Protocol: The evaluation of the cytotoxicity effects of QHSs was performed using hepatocellular carcinoma (HepG2) cells. […] The cells used for all experiments were taken between the 9th and 13th passages, to avoid phenotypic changes.
The cytotoxicity profile of the compounds under study was evaluated in HepG2 cells (2.5 × 10^5 cells/mL) seeded in 96-well plates. […] Control experiments were performed for viability endpoints by adding the vehicle (medium with 0.1% DMSO) instead of the compound solution.
In the NR uptake assay, following a 24 h incubation period with the test compounds, the cell culture medium was aspirated, and fresh medium containing 150 µL of the dye (at a concentration of […]) was added to the cells. […] After incubation, the cell culture medium was discarded, and a mixture of absolute ethanol and distilled water (1:1) containing 5% acetic acid was added to extract the dye accumulated within the lysosomes of viable cells. The absorbance at 540 nm was measured using a microplate reader (Synergy HTX Multi-Mode Reader—BioTek, Winooski, VT, USA).
For all assays, results are expressed as a percentage of the control (nontreated cells), taken as 100%.

S. aureus CECT 976 [4] = assay: Quantitative suspension test, dose-response against planktonic bacteria; assay type: cell-based, Staphylococcus aureus; conditions: S. aureus CECT 976; 30 min exposure
Protocol: A quantitative suspension test to explore the dose–response relationships of QHSs by evaluating bactericidal activity was performed. For this method, overnight grown cultures were centrifuged (VWR Mega Star 600R) at 3772× g for 10 min and washed twice with phosphate-buffered saline (PBS; 1.44 g/L of […]—Labkem, Barcelona, Spain; 8 g/L of sodium chloride, 0.2 g/L of potassium chloride, and 0.24 g/L of potassium dihydrogen phosphate—VWR, Leuven, Belgium) at pH 7.4. The collected cells were resuspended in PBS and adjusted to an optical density (OD) of 0.132 ± 0.02 (λ = 600 nm). Afterwards, 100 µL of this cell suspension was aseptically transferred to 800 µL of DW and allowed to stand for 2 min. To this mixture, 100 µL of each QHS solution diluted in DMSO at the desired concentration was added. The dose–response evaluation took place for 30 min at 37 °C. In the case of the negative control (untreated cells), the QHS solution was replaced by an equal volume of DMSO or DW. At the end of the contact time, QHS neutralization was performed through the dilution-neutralization method using a universal neutralizer (1 g/L L-histidine (Merck—Tokyo, Japan), 3 g/L lecithin (Alfa Aesar—Karlsruhe, Germany), 5 g/L sodium thiosulphate (Labkem—Barcelona, Spain), 30 g/L saponin (VWR Chemicals—Leuven, Belgium), and 30 g/L polysorbate 80 (VWR Chemicals—Le Havre, France) in 0.0025 M phosphate buffer). For neutralization, the test blend (100 µL) was added to 800 µL sterile aqueous neutralizing solution and 100 µL of DW. The mixture was gently agitated and allowed to stand for 10 min, after which serial dilutions (up to 10^−5) in sterile saline solution (0.85% w/v NaCl) were prepared. Then, 10 µL of each serial dilution was plated into Petri dishes containing PCA by the drop-plating method. The plates were allowed to set, then inverted and placed in an incubator at 37 °C for 24 h. The surviving cells on the QHS neutralized samples were determined by CFU counting on each plate, ensuring the counting of dilution plates that gave between 10 and 100 CFUs. The antibacterial activity was evaluated by quantification of logarithmic reduction (log CFU/mL), according to Equation (2). log CFU/mL reduction = log (X) − log (X0), (2) where X0 and X are the counts of CFU/mL before (untreated control cells) and after quaternary salt exposure, respectively.
The QHS concentrations chosen for conducting the dose–response tests comprise of the MBC, which causes the complete reduction of planktonic cells, as well as lower concentrations. Specifically, compound 1e was evaluated at concentrations of 0.25, 0.5, 0.75, 1, 2, 4, 8, and 16 µg/mL, compound 7e at concentrations of 1, 2, 3.2, 3.5, 4, 8, and 16 µg/mL, compound 5e at concentrations of 0.5, 1, 1.3, 1.6, 2, 4, and 8 µg/mL, and compound 3e at concentrations of 0.5, 0.75, 1, 1.3, 1.6, 2, 4, and 8 µg/mL. In the case of compounds 2e, 6e, and 4e, concentrations tested were 0.5, 1, 1.6, 2, 4, and 8 µg/mL. All tests were performed in duplicate, and with a minimum of three independent repeats.
The Chick–Watson mathematical model, provided in Equation (3), is considered an adequate approach to validate the kinetics of dose–response data. log X/X0 = − Kdis C^n t (3) where X0 and X are the counts of CFU/mL before and after quaternary salt exposure, respectively; Kdis is a killing rate coefficient ((mL.µg^−1)^n.min^−1); C is the quaternary salt concentration (µg.mL^−1); n is the concentration exponent and t is the exposure time (min). The concentration dependence of killing (n) was determined using a toolbox for linear regression in GraphPad Prism (version 8.4.0, GraphPad Software, La Jolla, CA, USA). The quality of the model was evaluated through the regression coefficient (R^2).

S. aureus RN4220 = assay: MIC/MBC by broth microdilution, S. aureus RN4220; assay type: cell-based; conditions: Staphylococcus aureus
Protocol: as §2, §1, §3

S. aureus SA1199B = assay: MIC/MBC by broth microdilution, S. aureus SA1199B; assay type: cell-based; conditions: Staphylococcus aureus
Protocol: as §2, §1, §3

S. aureus CECT 976 [5] = tested on: S. aureus CECT 976; parameters: method as in Abreu et al. [44]; conditions: antibiotics, broth microdilution, ref Abreu et al. [44]; cited from earlier work
[6] = S. aureus CECT 976, broth microdilution
[7] = S. aureus CECT 976, broth microdilution, plated on PCA, read-out: MBC

SMILES | CHI0 pH 2.6 [1] | MIC (S. aureus CECT 976 [2]; [6]) [µg/mL] | MBC (S. aureus CECT 976 [2]; [7]) [µg/mL] | CHI [3] | other results
c1ccc2[nH]cnc2c1 [Benzimidazole] | 6.300 | – | – | – | –
CCCC(=O)c1ccccc1 [Butyrophenone] | 87.30 | – | – | – | –
Cn1c(=O)c2c(ncn2C)n(C)c1=O [Caffeine] | 23.41 | – | – | – | –
NC(=O)N1c2ccccc2C=Cc2ccccc21 [Carbamazepine] | 60.42 | – | – | – | –
COc1cc2c(c(OC)c1OC)-c1ccc(OC)c(=O)cc1[C@@H](NC(C)=O)CC2 [Colchicine] | 43.90 | – | – | – | –
CCCCCCCCCCCCCCCCCC[n+]1cccc2ccccc21.[Br-] [Compound 5g, 1-Octadecylquinolin-1-ium bromide] | – | 16 | 16 | 112.9 | chromatographic logP [3]: 4.21
CCCCCC[n+]1ccccc1.[Br-] [Compound 6a, 1-Hexylpyridin-1-ium bromide] | – | > 64 | > 64 | 27.07 | chromatographic logP [3]: 0.172
CCCCCCCC[n+]1ccccc1.[Br-] [Compound 6b, 1-Octylpyridin-1-ium bromide] | – | > 64 | > 64 | 40.78 | chromatographic logP [3]: 0.817
CCCCCCCCCC[n+]1ccccc1.[Br-] [Compound 6c, 1-Decylpyridin-1-ium bromide] | – | 32 | > 64 | 53.07 | chromatographic logP [3]: 1.4
CCCCCCCCCCCC[n+]1ccccc1.[Br-] [Compound 6d, 1-Dodecylpyridin-1-ium bromide] | – | 2 | 8 | 65.58 | –
CCCCCCCCCCCCCCCC[n+]1ccccc1.[Br-] [Compound 6f, 1-Hexadecylpyridin-1-ium bromide] | – | – | – | 94.47 | MBC (S. aureus CECT 976 [2]): 8 µg/mL; chromatographic logP [3]: 3.34
CCCCCCCCCCCCCCCCCC[n+]1ccccc1.[Br-] [Compound 6g, 1-Octadecylpyridin-1-ium bromide] | – | 8 | 16 | 108.1 | chromatographic logP [3]: 3.98
CCCCCCCCCCCCCC[N+](CC)(CC)CC.[Br-] [Compound 7e, N,N,N-Triethyltetradecan-1-aminium bromide] | – | 2 | 16 | – | MBC (S. aureus XU212): 32 µg/mL; MIC (S. aureus XU212): 32 µg/mL; NR uptake (lysosomal activity), % of control (HepG2 cells; 2 µg/mL): 86.24 ± 1.502% (****); NR uptake (lysosomal activity), % of control (HepG2 cells; 16 µg/mL): 18.51 ± 2.592% (****); NR uptake (lysosomal activity), % of control (HepG2 cells; 32 µg/mL): 16.59 ± 4.378% (****); concentration inducing reductions in S. aureus log CFU/mL > 5 (S. aureus CECT 976 [4]): 3.4 μg/mL; MBC (S. aureus RN4220): 8 µg/mL; MIC (S. aureus RN4220): 4 µg/mL; MBC (S. aureus SA1199B): 32 µg/mL; MIC (S. aureus SA1199B): 16 µg/mL
CCCCCCC(=O)c1ccccc1 [Heptanophenone] | 112.1 | – | – | – | –
c1ccc2[nH]ccc2c1 [Indole] | 72.10 | – | – | – | –
CC(=O)Nc1ccc(O)cc1 [Paracetamol] | 18.77 | – | – | – | –
CCC(=O)c1ccccc1 [Propiophenone] | 77.40 | – | – | – | –
Cn1c(=O)c2[nH]cnc2n(C)c1=O [Theophylline] | 17.90 | – | – | – | –
CCCCC(=O)c1ccccc1 [Valerophenone] | 96.40 | – | – | – | –
CC1(C)S[C@@H]2[C@H](NC(=O)[C@H](N)c3ccccc3)C(=O)N2[C@H]1C(=O)O [[AMP], ampicillin] | – | – | – | – | MIC (S. aureus CECT 976 [5]): 1.5 µg/mL (≈ 4.29 µM)
Cc1onc(-c2ccccc2)c1C(=O)N[C@@H]1C(=O)N2[C@@H]1SC(C)(C)[C@@H]2C(=O)O [[OXA], oxacillin] | – | – | – | – | MIC (S. aureus CECT 976 [5]): 0.48 µg/mL (≈ 1.2 µM)
